Assay results as given in ChEMBL document CHEMBL5244260, “Aldose reductase and protein tyrosine phosphatase 1B inhibitors as a promising therapeutic approach for diabetes mellitus” (Eur J Med Chem, 2020).
pIC50, pKi: −log10 of the molar value. Each block holds one molecule with its values, some of them ahead of it.

How the values were obtained:
[1] = Inhibition of ALR2 in Sprague-Dawley rat lens using D,L-glyceraldehyde as substrate preincubated for 10 mins in presence of NADPH followed by substrate addition and measured after 5 mins by spectrophotometric assay; format: tissue-based
[2] = Inhibition of human recombinant ALR1 expressed in Escherichia coli by Coomassie reagent assay
[3] = biological target: T1, Tyrosine-protein phosphatase non-receptor type 1 (Homo sapiens, UniProt P18031); test: Inhibition of human recombinant PTP1B expressed in Escherichia coli BL21 (DE3) using pNPP as substrate by high-throughput screening assay
T1 sequence (P18031 whole entry): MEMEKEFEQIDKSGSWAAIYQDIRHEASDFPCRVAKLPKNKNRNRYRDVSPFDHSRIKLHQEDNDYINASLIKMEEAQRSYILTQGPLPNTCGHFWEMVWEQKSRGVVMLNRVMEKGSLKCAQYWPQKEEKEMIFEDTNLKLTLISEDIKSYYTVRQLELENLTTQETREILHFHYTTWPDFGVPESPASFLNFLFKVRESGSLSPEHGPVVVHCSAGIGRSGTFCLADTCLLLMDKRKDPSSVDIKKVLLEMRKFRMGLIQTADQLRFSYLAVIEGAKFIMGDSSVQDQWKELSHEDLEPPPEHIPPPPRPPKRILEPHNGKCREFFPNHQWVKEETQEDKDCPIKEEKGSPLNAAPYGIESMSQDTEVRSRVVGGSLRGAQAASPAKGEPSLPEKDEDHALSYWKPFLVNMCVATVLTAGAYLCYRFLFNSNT

[4] = biological target: Receptor-type tyrosine-protein phosphatase alpha (Homo sapiens, UniProt P18433); test: Inhibition of human PTPalpha assessed as inhibition constant
[5] = biological target: Receptor-type tyrosine-protein phosphatase F (Rattus norvegicus, UniProt Q64604); test: Inhibition of rat recombinant LAR expressed in Escherichia coli assessed as inhibition constant using pNPP as substrate incubated for 5 mins by […]
[6] = biological target: T1, Tyrosine-protein phosphatase non-receptor type 1; test: Inhibition of human recombinant PTP1B (1 to 321 residues) expressed in Escherichia coli BL21 (DE3) assessed as inhibition constant using pNPP as substrate by Michaelis-Menten analysis
[7] = biological target: Dual specificity protein phosphatase 3 (Homo sapiens, UniProt P51452); test: Inhibition of human recombinant VHR expressed in Escherichia coli BL21 (DE3) assessed as inhibition constant using pNPP as substrate by stopped-flow spectrophotometer
[8] = biological target: T2, Tyrosine-protein phosphatase non-receptor type 2 (Homo sapiens, UniProt P17706); test: Inhibition of Flag-tagged human TCPTP (1 to 296 residues) expressed in Escherichia coli BL21 using FDP as substrate
T2 sequence (P17706 whole entry): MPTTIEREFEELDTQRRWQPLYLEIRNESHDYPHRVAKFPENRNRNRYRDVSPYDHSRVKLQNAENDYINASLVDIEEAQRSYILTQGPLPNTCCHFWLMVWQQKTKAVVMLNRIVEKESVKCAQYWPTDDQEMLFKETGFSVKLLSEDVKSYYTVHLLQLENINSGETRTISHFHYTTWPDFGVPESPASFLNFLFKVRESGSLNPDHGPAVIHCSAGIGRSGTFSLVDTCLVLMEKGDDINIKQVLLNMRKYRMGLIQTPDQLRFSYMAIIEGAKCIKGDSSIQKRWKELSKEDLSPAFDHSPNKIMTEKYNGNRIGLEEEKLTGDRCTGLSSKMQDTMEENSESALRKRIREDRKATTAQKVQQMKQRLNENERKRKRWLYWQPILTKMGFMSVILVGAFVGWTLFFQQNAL

[9] = biological target: T1, Tyrosine-protein phosphatase non-receptor type 1; test: Inhibition of Flag-tagged human PTP1B (1 to 298 residues) expressed in Escherichia coli BL21 using FDP as substrate
[10] = biological target: T1, Tyrosine-protein phosphatase non-receptor type 1; test: Inhibition of human PTP1B (1 to 298 residues) expressed in Escherichia coli using FDP as substrate by microplate reader
Homo sapiens [11] = species: Homo sapiens; test: Selectivity ratio of IC50 for human PTP1B (1 to 298 residues) expressed in Escherichia coli BL21 (DE3) to IC50 for TCPTP (unknown origin)
[12] = biological target: T3, Aldo-keto reductase family 1 member B1 (Rattus norvegicus, UniProt P07943); test: Inhibition of ALR in Fischer-344 rat lens using D,L-glyceraldehyde as substrate in presence of NADPH measured after 3 mins by spectrophotometric assay; format: tissue-based
Homo sapiens [13] = species: Homo sapiens; test: Selectivity ratio of Ki for human PTP1B expressed in Escherichia coli BL21 (DE3) to Ki for TCPTP (unknown origin)
Homo sapiens [14] = species: Homo sapiens; test: Selectivity ratio of Ki for human PTP1B expressed in Escherichia coli BL21 (DE3) to Ki for CD45 (unknown origin)
Homo sapiens [15] = species: Homo sapiens; test: Selectivity ratio of Ki for human PTP1B expressed in Escherichia coli BL21 (DE3) to Ki for Calcineurin (unknown origin)
Homo sapiens [16] = species: Homo sapiens; test: Selectivity ratio of Ki for human PTP1B expressed in Escherichia coli BL21 (DE3) to Ki for SHP-2 (unknown origin)
Homo sapiens [17] = species: Homo sapiens; test: Selectivity ratio of Ki for human PTP1B expressed in Escherichia coli BL21 (DE3) to Ki for LAR (unknown origin)
[18] = biological target: T1, Tyrosine-protein phosphatase non-receptor type 1; test: Inhibition of PTP1B (1 to 321 residues) (unknown origin) expressed in Escherichia coli BL21 assessed as inhibition constant using pNPP as substrate incubated for 60 min by Michaelis-Menten analysis
[19] = biological target: T4, Aldo-keto reductase family 1 member B1 (Homo sapiens, UniProt P15121); test: Inhibition of human ALR2 assessed as inhibition constant
[20] = biological target: T3, Aldo-keto reductase family 1 member B1; test: Inhibition of Aldose reductase in rat lens using D,L-glyceraldehyde as substrate in presence of NADPH by spectrophotometric assay; format: tissue-based
[21] = biological target: T1, Tyrosine-protein phosphatase non-receptor type 1; test: Inhibition of PTP1B (1 to 321 residues) (unknown origin) expressed in Escherichia coli BL21 assessed as inhibition constant using pNPP as substrate incubated for 2 to 3 min by spectrophotometry analysis
[22] = biological target: Aldo-keto reductase family 1 member B1 (Sus scrofa, UniProt P80276); test: Inhibition of ALR2 in pig lens using D,L-glyceraldehyde as substrate preincubated for 4 mins in presence of NADPH followed by substrate addition and measured after 4 mins by spectrophotometric assay; format: tissue-based
[23] = biological target: T3, Aldo-keto reductase family 1 member B1; test: Inhibition of recombinant Aldose reductase in rat lens using D,L-glyceraldehyde as substrate in presence of NADPH measured after 4 mins by spectrophotometric assay; format: tissue-based
[24] = biological target: T4, Aldo-keto reductase family 1 member B1; test: Inhibition of Aldose reductase (unknown origin)

Dual specificity protein phosphatase 3, sequence (P51452 whole entry, the tested form may be a part): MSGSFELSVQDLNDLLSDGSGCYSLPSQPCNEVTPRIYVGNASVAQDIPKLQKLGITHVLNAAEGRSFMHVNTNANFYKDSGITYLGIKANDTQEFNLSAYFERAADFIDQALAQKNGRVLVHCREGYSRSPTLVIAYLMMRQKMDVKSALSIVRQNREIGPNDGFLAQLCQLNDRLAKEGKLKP
Receptor-type tyrosine-protein phosphatase F, sequence (Q64604 whole entry, the tested form may be a part): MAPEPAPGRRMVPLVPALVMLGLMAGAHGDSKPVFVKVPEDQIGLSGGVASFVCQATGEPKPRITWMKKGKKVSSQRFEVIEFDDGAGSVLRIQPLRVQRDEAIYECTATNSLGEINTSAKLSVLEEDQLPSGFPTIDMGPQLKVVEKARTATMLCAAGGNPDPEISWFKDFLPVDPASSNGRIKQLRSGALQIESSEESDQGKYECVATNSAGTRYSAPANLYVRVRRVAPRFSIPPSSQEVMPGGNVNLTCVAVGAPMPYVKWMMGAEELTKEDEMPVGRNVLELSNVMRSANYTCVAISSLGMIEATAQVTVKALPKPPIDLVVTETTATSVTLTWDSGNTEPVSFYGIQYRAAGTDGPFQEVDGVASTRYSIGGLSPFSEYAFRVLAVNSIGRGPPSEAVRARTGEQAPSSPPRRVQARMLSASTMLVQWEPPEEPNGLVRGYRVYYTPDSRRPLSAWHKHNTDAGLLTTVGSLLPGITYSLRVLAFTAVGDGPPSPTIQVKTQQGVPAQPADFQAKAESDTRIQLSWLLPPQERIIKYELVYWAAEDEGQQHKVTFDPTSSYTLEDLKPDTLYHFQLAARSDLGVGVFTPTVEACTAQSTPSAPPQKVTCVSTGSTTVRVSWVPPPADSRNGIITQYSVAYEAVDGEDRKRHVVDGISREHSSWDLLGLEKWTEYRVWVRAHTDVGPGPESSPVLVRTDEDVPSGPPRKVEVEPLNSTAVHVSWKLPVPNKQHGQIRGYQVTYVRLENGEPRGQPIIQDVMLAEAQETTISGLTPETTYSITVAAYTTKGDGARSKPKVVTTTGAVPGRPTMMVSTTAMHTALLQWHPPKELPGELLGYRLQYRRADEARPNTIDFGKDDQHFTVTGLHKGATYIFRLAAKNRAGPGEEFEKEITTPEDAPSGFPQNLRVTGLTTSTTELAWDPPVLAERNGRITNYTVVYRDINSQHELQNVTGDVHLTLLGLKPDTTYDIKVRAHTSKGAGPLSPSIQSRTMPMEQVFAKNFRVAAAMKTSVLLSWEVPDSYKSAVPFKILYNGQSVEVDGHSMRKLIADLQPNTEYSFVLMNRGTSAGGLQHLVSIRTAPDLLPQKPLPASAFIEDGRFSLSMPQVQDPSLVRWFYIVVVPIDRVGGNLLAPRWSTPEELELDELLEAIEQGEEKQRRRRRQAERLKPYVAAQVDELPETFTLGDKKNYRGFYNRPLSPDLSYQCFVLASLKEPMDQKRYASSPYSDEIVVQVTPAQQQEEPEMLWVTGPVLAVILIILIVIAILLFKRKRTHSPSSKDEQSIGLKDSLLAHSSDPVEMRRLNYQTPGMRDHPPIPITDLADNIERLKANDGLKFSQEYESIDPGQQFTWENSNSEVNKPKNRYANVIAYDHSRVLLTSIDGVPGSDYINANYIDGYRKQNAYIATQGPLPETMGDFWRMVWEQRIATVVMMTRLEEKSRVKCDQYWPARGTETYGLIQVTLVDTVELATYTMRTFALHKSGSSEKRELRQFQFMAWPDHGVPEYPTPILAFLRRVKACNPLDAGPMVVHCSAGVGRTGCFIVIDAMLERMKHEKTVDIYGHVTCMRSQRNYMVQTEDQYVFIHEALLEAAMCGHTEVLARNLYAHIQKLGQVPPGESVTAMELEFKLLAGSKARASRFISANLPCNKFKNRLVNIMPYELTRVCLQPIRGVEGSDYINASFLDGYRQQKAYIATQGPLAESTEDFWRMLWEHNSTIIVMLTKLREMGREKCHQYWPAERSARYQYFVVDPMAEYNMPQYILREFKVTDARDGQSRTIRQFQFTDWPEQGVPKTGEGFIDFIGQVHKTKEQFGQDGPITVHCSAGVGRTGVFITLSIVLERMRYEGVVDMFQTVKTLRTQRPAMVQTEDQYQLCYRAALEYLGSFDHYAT
Receptor-type tyrosine-protein phosphatase alpha, sequence (P18433 whole entry): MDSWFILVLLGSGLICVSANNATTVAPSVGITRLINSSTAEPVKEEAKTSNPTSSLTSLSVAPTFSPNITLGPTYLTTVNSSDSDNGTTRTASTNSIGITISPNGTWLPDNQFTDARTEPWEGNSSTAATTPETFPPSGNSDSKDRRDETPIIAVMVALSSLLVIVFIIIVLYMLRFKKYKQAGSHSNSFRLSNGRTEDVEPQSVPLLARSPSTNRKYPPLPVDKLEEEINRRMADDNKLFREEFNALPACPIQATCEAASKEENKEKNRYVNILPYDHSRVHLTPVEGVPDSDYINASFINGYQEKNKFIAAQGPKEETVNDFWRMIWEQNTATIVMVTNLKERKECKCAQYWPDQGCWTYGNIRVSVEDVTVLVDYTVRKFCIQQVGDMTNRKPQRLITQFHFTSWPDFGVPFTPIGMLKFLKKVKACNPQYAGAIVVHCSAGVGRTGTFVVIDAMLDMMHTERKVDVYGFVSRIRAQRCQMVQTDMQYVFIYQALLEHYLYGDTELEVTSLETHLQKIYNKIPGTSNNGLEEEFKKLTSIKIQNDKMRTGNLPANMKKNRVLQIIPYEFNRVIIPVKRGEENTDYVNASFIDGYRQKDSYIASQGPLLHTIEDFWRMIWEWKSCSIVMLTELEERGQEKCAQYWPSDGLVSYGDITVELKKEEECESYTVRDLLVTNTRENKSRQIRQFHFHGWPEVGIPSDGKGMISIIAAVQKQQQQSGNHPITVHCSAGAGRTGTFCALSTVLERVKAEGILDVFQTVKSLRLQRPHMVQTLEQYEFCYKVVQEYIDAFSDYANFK

Structure (SMILES): O=c1c(/C=C/c2ccc(O)cc2)nc2ccc(F)cc2n1-c1cnn(O)c1
pIC50 [1]: 6.97

Structure (SMILES): Cc1cc(/C=C2/S/C(=N/c3ccc(Cl)cc3)NC2=O)c(C)n1-c1cc(C(=O)O)cc(C(=O)O)c1
pIC50 [3]: 5.80

Structure (SMILES): O=C(CCc1ccc(C(F)(F)P(=O)(O)O)cc1)Nc1cc(NC(=O)CCc2ccc(C(F)(F)P(=O)(O)O)cc2)cc(C(=O)NCCc2ccc(C(=O)O)cc2)c1
pKi [4]: 3.92 | pKi [5]: 4.00 | pKi [6]: 6.03 | pKi [7]: 2.44

Structure (SMILES): Cc1noc(-c2ccc(C(C/C=C/c3ccccc3)(Cc3ccc(C(F)(F)P(=O)(O)O)cc3)n3nnc4ccccc43)cc2)n1 (stereo unspecified)
pIC50 [8]: 5.80 | pIC50 [9]: 6.79

Structure (SMILES): COC(CC(C)C)c1ccc2ccc(CC(Cc3ccc(C(F)(F)P(=O)(O)O)cc3)(c3ccccc3)n3nnc4ccccc43)c(P(=O)(O)O)c2n1 (stereo unspecified)
pIC50 [10]: 8.30 | Ratio IC50 (Homo sapiens [11]): 7.2

Structure (SMILES): O=C(O)Cn1ccc(-c2nc3ccccc3s2)c1
pIC50 [12]: 7.31

Structure (SMILES): CC(=O)N[C@@H](Cc1ccc(N(C(=O)C(=O)O)c2ccccc2C(=O)O)c2ccccc12)C(=O)NCCCCCOc1cc2ccccc2cc1C(=O)O
Ratio Ki (Homo sapiens [13]): 2 | Ratio Ki (Homo sapiens [14]): 2700 | Ratio Ki (Homo sapiens [15]): > 13000 | Ratio Ki (Homo sapiens [16]): 104 | Ratio Ki (Homo sapiens [17]): 36

Structure (SMILES): N#Cc1ccc(CNC(=O)c2ccc(Cl)cc2OCC(=O)O)cc1
pKi [19]: 5.70

Structure (SMILES): CC(C)NC(=O)NS(=O)(=O)c1ccc(-n2nc(-c3ccc(F)cc3)ccc2=O)cc1
pIC50 [20]: 4.35

Structure (SMILES): CCCCCCCCCCCCCCC(=O)N[C@@H](Cc1ccc(C(F)(F)P(=O)(O)O)cc1)C(=O)N[C@@H](CC(=O)O)C(=O)N[C@@H](Cc1ccc(C(F)(F)P(=O)(O)O)cc1)C(N)=O
pKi [21]: 7.60

Structure (SMILES): Cc1cc2c(s1)CCC1CC(=O)N(CCCCCC(=O)O)N=C21 (stereo unspecified)
pIC50 [22]: 4.74

Structure (SMILES): COc1ccc2c(c1)C=Cc1cc(OC)ccc1C2/C=C1\SC(=O)NC1=O
pIC50 [23]: 5.47

Continued, values first:

pIC50 [2]: 4.48
Structure (SMILES): O=C(O)COc1cc(F)ccc1C(=S)NCc1ccc(Br)cc1F

pIC50 [2]: 4.46
Structure (SMILES): O=C(O)COc1cc(F)ccc1C(=S)NCc1cccc([N+](=O)[O-])c1

pKi [18]: 6.22
Structure (SMILES): O=C(O)C(=O)Nc1sc2c(c1C(=O)O)COC(COC1=NS(=O)(=O)c3ccccc31)C2 (stereo unspecified)

pIC50 [23]: 5.52
Structure (SMILES): O=C1CC2(C(=O)N1)c1ccc(O)cc1C=Cc1cc(O)ccc12

pIC50 [24]: 5.34
Structure (SMILES): O=[N+]([O-])c1cc(Br)cc2c1NC=NS2(=O)=O
